Test results published in PMC6931042 (Bioorganic chemistry, 2018).
Read-outs that look alike come from different tables or passages of the source.

How the values were obtained:
[1] = test system: human lung adenocarcinoma A549; experiment: Trypan blue exclusion cytotoxicity assay
[2] = test system: chronic myeloid leukemia K-562; experiment: Trypan blue exclusion cytotoxicity assay
[3] = read-out: A549 (IC50 μM), trypan blue exclusion, 24 h, mean ± SD
[4] = read-out: K-562 (IC50 μM), trypan blue exclusion, 24 h, mean ± SD
[5] = Homo sapiens, A549, 24 h, read-out: A549 (IC50 μM), trypan blue exclusion, mean ± SD
[6] = Homo sapiens, K562, 24 h, read-out: K-562 (IC50 μM), trypan blue exclusion, mean ± SD

N.N.[Cl][Pt][Cl] [Cisplatin, reference compound]
IC50 [1, 3]: 15.3 ± 1.87 µM | IC50 [2, 4]: 2.71 ± 0.34 µM

Nc1ccc(C(/C=C\c2ccccc2)=NNC(=O)c2cc(-c3ccccc3)nc3ccccc23)cc1 [Compound 9a, N’-((Z)-1-(4-Aminophenyl)-3-phenylallylidene)-2-phenylquinoline-4-carbohydrazide]
IC50 [1, 5]: > 100 µM | IC50 [2, 6]: 83 µM | IC50 [2, 4]: 82.8 ± 3.24 µM

Nc1ccc(C(/C=C\c2ccccc2)=NNC(=O)c2cc(-c3ccc(Cl)cc3)nc3ccccc23)cc1 [Compound 9b, N’-((Z)-1-(4-Aminophenyl)-3-phenylallylidene)-2-(4-chlorophenyl)quinoline-4-carbohydrazide]
IC50 [1, 5]: 17.6 ± 2.5 µM | IC50 [2, 6]: 8.96 ± 1.06 µM

COc1ccc(-c2cc(C(=O)NN=C(/C=C\c3ccccc3)c3ccc(N)cc3)c3ccccc3n2)cc1 [Compound 9c, N’-((Z)-1-(4-Aminophenyl)-3-phenylallylidene)-2-(4-methoxyphenyl)quinoline-4-carbohydrazide]
IC50 [1, 5]: 16.4 ± 1.3 µM | IC50 [2, 6]: 5.37 ± 0.31 µM

Cc1ccc(-c2cc(C(=O)NN=C(/C=C\c3ccccc3)c3ccc(N)cc3)c3ccccc3n2)cc1 [Compound 9d, N’-((Z)-1-(4-Aminophenyl)-3-phenylallylidene)-2-(4-methylphenyl)quinoline-4-carbohydrazide]
IC50 [1, 5]: 11 µM | IC50 [1, 3]: 11.2 ± 0.52 µM | IC50 [2, 6]: 6.98 ± 0.92 µM

COc1ccc2nc(-c3ccc(Cl)cc3)cc(C(=O)NN=C(/C=C\c3ccccc3)c3ccc(N)cc3)c2c1 [Compound 9e, N’-((Z)-1-(4-Aminophenyl)-3-phenylallylidene)-2-(4-chlorophenyl)-6-methoxyquinoline-4-carbohydrazide]
IC50 [1, 5]: 19.2 ± 1.85 µM | IC50 [2, 6]: 5.09 ± 0.19 µM

COc1ccc(-c2cc(C(=O)NN=C(/C=C\c3ccccc3)c3ccc(N)cc3)c3cc(OC)ccc3n2)cc1 [Compound 9f, N’-((Z)-1-(4-Aminophenyl)-3-phenylallylidene)-2-(4-methoxyphenyl)-6-methoxyquinoline-4-carbohydrazide]
IC50 [1, 5]: 91 µM | IC50 [1, 3]: 91.4 ± 4.54 µM | IC50 [2, 6]: 81 µM | IC50 [2, 4]: 81.2 ± 3.14 µM

Nc1ccc(C(/C=C\c2ccc(Cl)cc2)=NNC(=O)c2cc(-c3ccccc3)nc3ccccc23)cc1 [Compound 9g, N’-((Z)-1-(4-Aminophenyl)-3-(4-chlorophenyl)allylidene)-2-phenylquinoline-4-carbohydrazide]
IC50 [1, 5]: 18.5 µM | IC50 [1, 3]: 18.5 ± 0.52 µM | IC50 [2, 6]: 15.2 µM | IC50 [2, 4]: 15.2 ± 2.15 µM

Nc1ccc(C(/C=C\c2ccc(Cl)cc2)=NNC(=O)c2cc(-c3ccc(Cl)cc3)nc3ccccc23)cc1 [Compound 9h, N’-((Z)-1-(4-Aminophenyl)-3-(4-chlorophenyl)allylidene)-2-(4-chlorophenyl)quinoline-4-carbohydrazide]
IC50 [1, 5]: 9 µM | IC50 [1, 3]: 9.46 ± 0.63 µM | IC50 [2, 6]: 4.28 ± 0.34 µM

COc1ccc2nc(-c3ccc(Cl)cc3)cc(C(=O)NN=C(/C=C\c3ccc(Cl)cc3)c3ccc(N)cc3)c2c1 [Compound 9k, N’-((Z)-1-(4-Aminophenyl)-3-(4-chlorophenyl)allylidene)-2-(4-chlorophenyl)-6-methoxyquinoline-4-carbohydrazide]
IC50 [1, 5]: > 100 µM | IC50 [2, 6]: 15.2 ± 1.49 µM

COc1ccc(-c2cc(C(=O)NN=C(/C=C\c3ccc(Cl)cc3)c3ccc(N)cc3)c3cc(OC)ccc3n2)cc1 [Compound 9l, N’-((Z)-1-(4-Aminophenyl)-3-(4-chlorophenyl)allylidene)-2-(4-methoxyphenyl)-6-methoxyquinoline-4-carbohydrazide]
IC50 [1, 5]: > 100 µM | IC50 [2, 6]: 5.17 ± 0.18 µM

COc1ccc(/C=C\C(=NNC(=O)c2cc(-c3ccccc3)nc3ccccc23)c2ccc(N)cc2)cc1 [Compound 9m, N’-((Z)-1-(4-Aminophenyl)-3-(4-methoxyphenyl)allylidene)-2-phenylquinoline-4-carbohydrazide]
IC50 [1, 5]: > 100 µM | IC50 [2, 6]: 60.7 ± 2.67 µM

COc1ccc(/C=C\C(=NNC(=O)c2cc(-c3ccc(Cl)cc3)nc3ccccc23)c2ccc(N)cc2)cc1 [Compound 9n, N’-((Z)-1-(4-Aminophenyl)-3-(4-methoxyphenyl)allylidene)-2-(4-chlorophenyl)quinoline-4-carbohydrazide]
IC50 [1, 5]: 48.3 ± 1.69 µM | IC50 [2, 6]: 14.4 ± 0.94 µM

COc1ccc(/C=C\C(=NNC(=O)c2cc(-c3ccc(OC)cc3)nc3ccccc23)c2ccc(N)cc2)cc1 [Compound 9o, N’-((Z)-1-(4-Aminophenyl)-3-(4-methoxyphenyl)allylidene)-2-(4-methoxyphenyl)quinoline-4-carbohydrazide]
IC50 [1, 5]: 46.5 ± 2.21 µM | IC50 [2, 6]: 10.9 ± 0.74 µM

COc1ccc(/C=C\C(=NNC(=O)c2cc(-c3ccc(C)cc3)nc3ccccc23)c2ccc(N)cc2)cc1 [Compound 9p, N’-((Z)-1-(4-Aminophenyl)-3-(4-methoxyphenyl)allylidene)-2-(4-methylphenyl)quinoline-4-carbohydrazide]
IC50 [1, 5]: 33.9 ± 2.15 µM | IC50 [2, 6]: 18 ± 0.97 µM

COc1ccc(/C=C\C(=NNC(=O)c2cc(-c3ccc(Cl)cc3)nc3ccc(OC)cc23)c2ccc(N)cc2)cc1 [Compound 9q, N’-((Z)-1-(4-Aminophenyl)-3-(4-methoxyphenyl)allylidene)-2-(4-chlorophenyl)-6-methoxyquinoline-4-carbohydrazide]
IC50 [1, 5]: 97.2 ± 2.36 µM | IC50 [2, 6]: 68.1 ± 2.87 µM

COc1ccc(/C=C\C(=NNC(=O)c2cc(-c3ccc(OC)cc3)nc3ccc(OC)cc23)c2ccc(N)cc2)cc1 [Compound 9r, N’-((Z)-1-(4-Aminophenyl)-3-(4-methoxyphenyl)allylidene)-2-(4-methoxyphenyl)-6-methoxyquinoline-4-carbohydrazide]
IC50 [1, 5]: 67.4 ± 2.29 µM | IC50 [2, 6]: 4.45 ± 0.64 µM

COc1ccc2nc(-c3ccc(Cl)cc3)cc(C(=O)NN=C(/C=C\c3ccc(OC)c(OC)c3)c3ccc(N)cc3)c2c1 [Compound 9s, N’-((Z)-1-(4-Aminophenyl)-3-(3,4-dimethoxyphenyl)allylidene)-2-(4-chlorophenyl)-6-methoxyquinoline-4-carbohydrazide]
IC50 [1, 5]: > 100 µM | IC50 [2, 6]: > 100 µM

COc1ccc(-c2cc(C(=O)NN=C(/C=C\c3ccc(OC)c(OC)c3)c3ccc(N)cc3)c3cc(OC)ccc3n2)cc1 [Compound 9t, N’-((Z)-1-(4-Aminophenyl)-3-(3,4-dimethoxyphenyl)allylidene)-2-(4-methoxyphenyl)-6-methoxyquinoline-4-carbohydrazide]
IC50 [1, 5]: 31.6 ± 2.02 µM | IC50 [2, 6]: 23.1 ± 2.15 µM

O=c1cc(N2CCOCC2)oc2c(-c3ccccc3)cccc12 [LY294002, reference compound]
IC50 [1, 5]: 3.52 µM | IC50 [2, 6]: 2.68 µM
